The source of these data is publication PMC7394103 (Frontiers in Pharmacology, 2020).

The term IC50 denotes the point on the concentration scale where inhibition reaches its midpoint.

One assay concerns the target T1, AChE (Homo sapiens, UniProt P22303).
T1 construct: purchased Sigma-Aldrich
The assay can be described thus: AChE inhibition assay (Ellman-based kit). The class given is biochemical. To be noted: concentration causing 30% inhibition. The method, then:
The inhibitory effect of test compounds on AChE activity was performed using an AChE inhibitor screening kit from Sigma-Aldrich. The kit is based on an improved Ellman method, whereby thiocholine produced from AChE activity forms a yellow color with 5,5’-dithiobis(2-nitrobenzoic acid), and the intensity the color (412 nm) is proportional to enzyme activity. […] IC30 was obtained by graphing the % inhibition of enzyme activity versus the logarithm of concentration of test compound using 5–7 tested concentrations.

For assay [1], the system named is IL-6 secretion by monocytic THP-1 cells. The assay is described as follows: IL-1β-induced IL-6 secretion by THP-1 cells (ELISA). The class given is cell-based. To be noted: Homo sapiens, 30 min compound, then 5 ng/ml IL-1β, 24 h. The method, then: (§1) FLS, HUVEC, SW982, and THP-1 cells were plated in 96 well plates (10^4 to 10^5 cells/well) for 48 h before treatment. At 2 days post-confluency, the cells were serum-starved and washed twice (with the exception of THP-1 cell, which were not washed) with FBS-free medium prior to the addition of test compounds. The cells were incubated in the presence or absence of test compounds or DMSO (vehicle control) for 30 min at 37°C in a 5% CO2 atmosphere, IL-1β (5 ng/ml) was added, and the cells were incubated for an additional 24 h. Culture supernatants were collected and stored at –80°C. The levels of MMP-1 and MMP-3 were determined in culture supernatants using commercially available ELISA kits according to the manufacturer’s instructions (R&D System, Minneapolis, MN, USA). IL-6 levels were also determined in the supernatants using a human IL-6 ELISA kit (BD Biosciences, San Jose, CA, USA).

Assay [2] relates to IL-6 secretion by synovial SW982 cells. The assay is described as follows: IL-1β-induced IL-6 secretion by SW982 cells (ELISA). The format is cell-based, human. The following applies: for IC50: Homo sapiens, SW982, 30 min compound, then 5 ng/ml IL-1β, 24 h, read-out: SW982 IL-6 IC50. The method, then: as §1, with “The cells were incubated in the presence or absence of test compounds or DMSO (vehicle control) for 30 min at 37°C in a 5% CO2 atmosphere, IL-1β (5 ng/ml) was added, and the cells were incubated for an additional 24 h.” left out
On the technique in general: An ELISA detects its analyte on a solid surface through an enzyme-linked reagent.

A further assay concerns IL-6 secretion by HUVEC. The assay is described as follows: IL-1β-induced IL-6 secretion by HUVEC (ELISA). The class given is cell-based. The following applies: Homo sapiens, 30 min compound, then 5 ng/ml IL-1β, 24 h. The method, then:
as §1

Another assay relates to MMP-1 secretion by HUVEC. The assay is described as follows: IL-1β-induced MMP-1 secretion by HUVEC (ELISA). The class given is cell-based. The following applies: Homo sapiens, 30 min compound, then 5 ng/ml IL-1β, 24 h. The method, then: as §1
The next assay relates to MMP-3 secretion by FLS. The assay can be described thus: IL-1β-induced MMP-3 secretion by FLS (ELISA). The format is cell-based. To be noted: Homo sapiens; 30 min compound, then 5 ng/ml IL-1β, 24 h. An excerpt: This study was approved by the Institutional Review Board of University of California, San Diego School of Medicine (La Jolla, CA, USA). Informed consent was obtained from all participants. Anonymous synovial tissue samples were obtained from six patients with RA at the time of total joint replacement (5 females, 1 male; age range, 44–72 years), as previously described ([Alvaro-Gracia et al., 1990]). The diagnosis of RA conformed to American College of Rheumatology 1987 revised criteria ([Arnett et al., 1988]). The synovium was minced and incubated with collagenase type VIII (0.5 mg/ml) (Sigma-Aldrich) in serum-free RPMI-1640 (Life Technologies, Grand Island, NY, USA) for 2 h at 37°C, filtered, extensively washed, and cultured in DMEM (Life Technologies) supplemented with 10% FBS (Gemini Bio Products, Calabasas, CA, USA), penicillin, streptomycin, gentamicin, and glutamine in a humidified 5% CO2 atmosphere. […]
FLS, HUVEC, SW982, and THP-1 cells were plated in 96 well plates (10^4 to 10^5 cells/well) for 48 h before treatment. […] The levels of MMP-1 and MMP-3 were determined in culture supernatants using commercially available ELISA kits according to the manufacturer’s instructions (R&D System, Minneapolis, MN, USA). IL-6 levels were also determined in the supernatants using a human IL-6 ELISA kit (BD Biosciences, San Jose, CA, USA).

Another assay deals with CAIA in BALB/c mice. The assay is described as follows: Collagen-antibody-induced arthritis (CAIA), clinical score and histopathology. To be noted: for CAIA joint histopathology / severity of CAIA (mean arthritis score): 30 mg/kg i.p. daily; for CAIA joint histopathology: day 1 to 9, vs saline; for severity of CAIA (mean arthritis score): day 1 to 9, vs vehicle; for therapeutic effect in CAIA compared to IQ-1S: 30 mg/kg i.p., days 6 and 7. The class given is in vivo. The method, then:
CAIA was induced in 7- to 8-week-old BALB/c mice from Charles River Laboratories (Wilmington, MA, USA) by i.p. injection of a cocktail of monoclonal anti-CII antibodies (Chondrex; 1.5 mg/mouse) on day 0, followed by i.p. lipopolysaccharide (LPS) injection (30 μg LPS from Escherichia coli strain 0111:B4 in PBS) on day 3. Control animals received an equal volume of PBS.
Arthritis development was evaluated daily for 10 days post-injection of the monoclonal antibody cocktail. Arthritis symptoms were scored on scale of 0 to 4 in accordance with the Chondrex Mouse Arthritis Scoring System in a blinded manner, as follows: 0, no signs of inflammation; 1, mild redness or swelling of single joint (one of the interphalangeal joints, metacarpophalangeal joints, carpal joint for the front paw, and tarsal joint for the hind); 2, two joints have redness and swelling; 3, all three joint types have redness and swelling; 4, maximal redness and swelling of entire paw leads to the disappearance of anatomical definition.
In CAIA, animals were sacrificed on day 14, and their forward and hind limbs were processed as described above. Three sections in the sagittal projection of joints, 40 µm apart, were examined by the same system with the grades ranging 0 to 4. Total H&E histopathological score for three sections included cartilage destruction, pannus formation, and synovial cells changes. For cartilage destruction, the scale was: 0—normal, superficial zone is smooth; 1—superficial fibrillations, some loss of surface lamina; 2—vertical clefts/erosion to the calcified cartilage up to 25% of the surface; 3—vertical clefts/erosion to the calcified cartilage 25% to 50% of the surface, 4—vertical clefts/erosion to the calcified cartilage more than 50% of the surface, severe chondrocytes, and cartilage matrix loss with new bone tissue substitution. For pannus formation the scale was: 0—normal; 1—exudate in the joint; 2—single inflammatory cells in the exudate; 3—mild infiltration of the inflammatory cells; 4—heavy inflammatory infiltration and debris in the joint. For synovial membrane changes the scale was: 0 – normal, 1 to 2 layer of synovial lining cells; 1—initial hyperplasia of the cells and increased number of lining cells layers; 2—increased number of lining cell layers, more than 3 to 4 layers and/or proliferation of sub-synovial tissue; 3—more than 4 layers of lining cells, focal infiltration of inflammatory cells, proliferation of subsynovial tissue; 4—more than four layers of lining cells, diffused infiltration of inflammatory cells, proliferation of sub-synovial tissue.

T1 sequence (P22303 32-614): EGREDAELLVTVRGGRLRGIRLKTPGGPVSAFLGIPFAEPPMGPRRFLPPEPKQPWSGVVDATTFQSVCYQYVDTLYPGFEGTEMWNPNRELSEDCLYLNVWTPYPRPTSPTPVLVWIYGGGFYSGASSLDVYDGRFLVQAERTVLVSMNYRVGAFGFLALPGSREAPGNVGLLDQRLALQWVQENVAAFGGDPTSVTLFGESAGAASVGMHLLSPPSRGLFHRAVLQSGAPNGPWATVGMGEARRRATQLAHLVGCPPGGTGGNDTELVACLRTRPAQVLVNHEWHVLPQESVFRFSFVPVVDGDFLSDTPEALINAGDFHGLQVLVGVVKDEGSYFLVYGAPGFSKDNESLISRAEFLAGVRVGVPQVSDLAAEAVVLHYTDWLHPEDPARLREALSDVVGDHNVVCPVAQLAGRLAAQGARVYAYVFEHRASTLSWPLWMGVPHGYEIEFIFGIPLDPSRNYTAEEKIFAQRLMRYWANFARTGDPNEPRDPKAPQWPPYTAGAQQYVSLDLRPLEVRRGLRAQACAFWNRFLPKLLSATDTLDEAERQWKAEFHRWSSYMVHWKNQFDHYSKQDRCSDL

For the compound `O=C1c2ccccc2-n2c1nc1ccccc1c2=O` [TRYP, indolo[2,1-b]quinazolin-6,12-dione], the “AChE inhibition IC30” value on AChE is 4.2 ± 1.2 µM. In addition, the IC50 in assay [1] was 9.3 ± 2.7 µM; in assay [2], 2.5 ± 1.1 µM; in the assay with IL-6 secretion by HUVEC it was 6.4 ± 2.7 µM; in the assay on MMP-1 secretion by HUVEC it was 3.4 ± 1.1 µM; in the assay on MMP-3 secretion by FLS it was 12.7 ± 4.6 µM. In addition, in assay [2] (5 µM TRYP plus SP600125, compared to SP600125 alone), the “overall inhibition of IL-6 secretion in combination with SP600125” value is reported as “acted synergistically”. Also, the CAIA joint histopathology entry with CAIA in BALB/c mice is given as “little cartilage erosion, synovial hyperplasia, or cellular infiltration”. Also, the “severity of CAIA (mean arthritis score)” value in the assay on CAIA in BALB/c mice was “significant reductions in the severity of CAIA”. In addition, in the assay on CAIA in BALB/c mice, the “therapeutic effect in CAIA compared to IQ-1S” value is recorded as “significantly greater”.
As for `O=c1c2ccccc2nc2n1-c1ccccc1/C2=N/O` [TRYP-Ox, tryptanthrin-6-oxime], the “AChE inhibition IC30” value on AChE is 12.0 ± 3.9 µM. The IC50 in assay [1] was 0.3 ± 0.12 µM; in assay [2] it was 0.4 ± 0.2 µM; in the assay on IL-6 secretion by HUVEC, 0.9 ± 0.3 µM; in the assay on MMP-1 secretion by HUVEC it was 2.9 ± 0.1 µM; in the assay on MMP-3 secretion by FLS, 3.8 ± 0.4 µM. For the same compound, the CAIA joint histopathology result in the assay with CAIA in BALB/c mice is recorded as “little cartilage erosion, synovial hyperplasia, or cellular infiltration”. In the assay on CAIA in BALB/c mice, the “severity of CAIA (mean arthritis score)” value is given as “significant reductions in the severity of CAIA”. Moreover, in the assay with CAIA in BALB/c mice, the “therapeutic effect in CAIA compared to IQ-1S” value is “significantly greater”.
